Consider eleven compounds from ChEMBL document CHEMBL1201862, “PubChem BioAssay data set” (2004).

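Cultured in 96-well plates, cells were exposed to test compound for 48 hours across five concentrations. Here, GI50 denotes the concentration required for 50% inhibition of growth.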 The source made the active and inactive calls. Cut-off read from the data, not from the text of the source: active = GI50 up to about 1.1 µM and inactive = higher.

Some test systems named below: OVCAR-4; RXF 393; UACC-257; NCI-H460; HCC 2998; HCT-116; A498; MDA-MB-231; OVCAR-3; IGROV-1; SR; M14; SK-MEL-2; SF-539; Malme-3M; U-251; T47D; HOP-92; LOX IMVI; UO-31.
Holding throughout (assay): growth of human tumour cells (NCI), 48 h

With `Clc1c(Cl)c(Cl)c2c(nnn2C2CCCO2)c1Cl` (stereo not drawn), the GI50 is 18.9 µM (inactive) with OVCAR-4; 44.4 µM (inactive) in the experiment on RXF 393; 35.6 µM (inactive) in the experiment on UACC-257; 13.9 µM (inactive) in the experiment with NCI-H460; 29.8 µM (inactive) in the experiment on HCC 2998; 39.1 µM (inactive) in the experiment on HCT-116. Further, the GI50 with A498 was 27.5 µM (inactive); with MDA-MB-231, 43.5 µM (inactive); in the experiment with OVCAR-3 it was 34.6 µM (inactive); in the experiment on IGROV-1 it was 34.4 µM (inactive); in the experiment on SR, 32.9 µM (inactive); in the experiment on M14, 39.6 µM (inactive). Also, the GI50 is 26.5 µM (inactive) in the experiment with SK-MEL-2; 30.7 µM (inactive) in the experiment on SF-539; 31.3 µM (inactive) in the experiment on Malme-3M; 33.8 µM (inactive) in the experiment with U-251; 50.9 µM (inactive) with T47D.
For `CCOC(=O)C1NCCc2c1[nH]c1ccccc21` (stereo not drawn), the GI50 in the experiment with OVCAR-4, in the experiment with RXF 393, with UACC-257, with HCC 2998, with MDA-MB-231 and in the experiment with OVCAR-3 was > 10 µM (inactive) throughout. For the same compound, the GI50 in the experiment with IGROV-1, with HOP-92, with SR, with M14, in the experiment with Malme-3M and in the experiment on T47D was > 10 µM (inactive) in each case.
For `CN(C)c1ccc(/C=C2\C[C@H]3[C@@H]4CC=C5C[C@@H](O)CC[C@]5(C)[C@H]4CC[C@]3(C)C2=O)cc1`, the GI50 in the experiment on LOX IMVI is 13.2 µM (inactive); with OVCAR-4, 18.1 µM (inactive); in the experiment with RXF 393 it was 19.7 µM (inactive); with UACC-257, 19.9 µM (inactive); in the experiment with NCI-H460, 15.8 µM (inactive); in the experiment with HCT-116, 29.2 µM (inactive). For the same compound, the GI50 with A498 is 20.9 µM (inactive); in the experiment on MDA-MB-231, 18 µM (inactive); with OVCAR-3, 24.8 µM (inactive); in the experiment on IGROV-1 it was 18 µM (inactive); in the experiment with UO-31, 4.55 µM (inactive); with SR it was 29.1 µM (inactive). Further, the GI50 in the experiment with M14 is 16.6 µM (inactive); in the experiment with SK-MEL-2 it was 19.7 µM (inactive); in the experiment with SF-539, 9.2 µM (inactive); in the experiment with Malme-3M it was 19.5 µM (inactive); with U-251, 12.9 µM (inactive); with T47D, 20.3 µM (inactive).
As for `CCOC(=O)c1cc2cc(CSc3ccccc3)ccc2oc1=O`, the GI50 was > 100 µM (inactive) with LOX IMVI; > 100 µM (inactive) with OVCAR-4; 39.4 µM (inactive) with RXF 393; > 100 µM (inactive) in the experiment with UACC-257; > 100 µM (inactive) in the experiment on NCI-H460; 42.6 µM (inactive) in the experiment with HCC 2998. For the same compound, the GI50 in the experiment on HCT-116 was > 100 µM (inactive); in the experiment on MDA-MB-231, 52.6 µM (inactive); in the experiment on OVCAR-3, 96.6 µM (inactive); in the experiment with IGROV-1 it was > 100 µM (inactive); in the experiment with HOP-92 it was > 100 µM (inactive); in the experiment on UO-31, 43.9 µM (inactive). Moreover, the GI50 in the experiment on SR is > 100 µM (inactive); in the experiment with M14, 51.5 µM (inactive); in the experiment with SK-MEL-2, 92.5 µM (inactive); in the experiment with SF-539 it was 91.8 µM (inactive); with Malme-3M, > 100 µM (inactive); with U-251 it was > 100 µM (inactive). In addition, the GI50 in the experiment on T47D was > 100 µM (inactive).
In the case of `Cc1cn(CCOCCOC(=O)NC(CCCNC(N)=O)C(=O)O)c(=O)[nH]c1=O` (stereo not drawn), the GI50 in the experiment on LOX IMVI, in the experiment on OVCAR-4, in the experiment with RXF 393, in the experiment with UACC-257, in the experiment on NCI-H460 and in the experiment on HCC 2998 was > 100 µM (inactive) throughout. Besides, the GI50 is > 100 µM (inactive) in the experiment on HCT-116; > 100 µM (inactive) in the experiment on MDA-MB-231; > 100 µM (inactive) with OVCAR-3; 36 µM (inactive) in the experiment with IGROV-1; > 100 µM (inactive) in the experiment on HOP-92; > 100 µM (inactive) in the experiment with UO-31. In addition, the GI50 in the experiment on SR, in the experiment with M14, in the experiment on SK-MEL-2, in the experiment on SF-539, in the experiment on U-251 and in the experiment on T47D was > 100 µM (inactive) in each case.
`Cc1ccc([N+](=O)[O-])cc1NC1=NCCO1`: the GI50 in the experiment with LOX IMVI, in the experiment with OVCAR-4, with RXF 393, in the experiment on UACC-257, with NCI-H460 and with HCC 2998 was > 100 µM (inactive) in each case. Moreover, the GI50 in the experiment on HCT-116, in the experiment on A498, with MDA-MB-231, in the experiment on OVCAR-3, in the experiment on IGROV-1 and in the experiment on UO-31 was > 100 µM (inactive) throughout. Besides, the GI50 in the experiment with SR is 45.8 µM (inactive); in the experiment on M14, > 100 µM (inactive); in the experiment with SK-MEL-2 it was > 100 µM (inactive); in the experiment with SF-539 it was > 100 µM (inactive); in the experiment on Malme-3M, > 100 µM (inactive); in the experiment with U-251, > 100 µM (inactive). Also, the GI50 in the experiment on T47D was > 100 µM (inactive).
In the case of `COC(=O)/C=C\S/C(=C(/c1ccccc1)n1ccc(C(=O)OC)n1)c1ccccc1`, the GI50 is > 100 µM (inactive) in the experiment with LOX IMVI; 21.9 µM (inactive) in the experiment on OVCAR-4; 13.1 µM (inactive) in the experiment with RXF 393; 45.3 µM (inactive) in the experiment with UACC-257; 66.4 µM (inactive) in the experiment on NCI-H460; 41 µM (inactive) with HCC 2998. For the same compound, the GI50 was 20.5 µM (inactive) in the experiment with HCT-116; 9.82 µM (inactive) in the experiment on MDA-MB-231; 58.6 µM (inactive) with IGROV-1; 20.9 µM (inactive) in the experiment with HOP-92; 13.7 µM (inactive) in the experiment on UO-31; > 100 µM (inactive) in the experiment with SR. The GI50 in the experiment with M14 is 43.1 µM (inactive); in the experiment on SK-MEL-2, 15.7 µM (inactive); in the experiment on SF-539, 40.2 µM (inactive); in the experiment on Malme-3M, 23.7 µM (inactive); with U-251, 13 µM (inactive); in the experiment on T47D, 24.5 µM (inactive).
With `CN(Cc1nc2c(N)nc(N)nc2nc1N)c1ccc(C(=O)NC(CCC(=O)O)C(=O)O)cc1` (stereo not drawn), the GI50 with LOX IMVI was < 0.01 µM (active); with OVCAR-4, > 100 µM (inactive); with RXF 393, > 100 µM (inactive); in the experiment on UACC-257 it was 5.58 µM (inactive); with NCI-H460, < 0.0122 µM (active); in the experiment on HCC 2998 it was 3.65 µM (inactive). Further, the GI50 in the experiment on HCT-116 is < 0.01 µM (active); in the experiment with MDA-MB-231, > 100 µM (inactive); in the experiment on OVCAR-3 it was > 100 µM (inactive); in the experiment on IGROV-1, 3.07 µM (inactive); in the experiment on HOP-92, > 100 µM (inactive); with UO-31 it was 0.561 µM (active). The GI50 in the experiment with SR was < 0.01 µM (active); with M14, 0.0615 µM (active); in the experiment on SK-MEL-2 it was > 100 µM (inactive); with SF-539, 0.0378 µM (active); with U-251, 0.494 µM (active); in the experiment with T47D, > 100 µM (inactive).
Consider `CC(=O)OCC(OC(C)=O)C(OC(C)=O)C(OC(C)=O)C(/C=N\Nc1nc2ccccc2c(=O)[nH]1)OC(C)=O` (stereo not drawn), for which the GI50 with LOX IMVI, with RXF 393, with UACC-257, with NCI-H460, in the experiment on HCC 2998 and in the experiment on HCT-116 was > 100 µM (inactive) in each case. The GI50 in the experiment on MDA-MB-231, in the experiment on OVCAR-3, in the experiment on HOP-92, with UO-31, in the experiment with SR and in the experiment with M14 was > 100 µM (inactive) each time. The GI50 in the experiment on SK-MEL-2, in the experiment with SF-539, in the experiment on Malme-3M, in the experiment on U-251 and in the experiment on T47D was > 100 µM (inactive) throughout.
Turning to `COc1c(Cl)ccc(Cl)c1-c1nnc(-c2c(Cl)c(Cl)c(Cl)c(Cl)c2-c2nc3cc(C(=O)c4ccccc4)ccc3[nH]2)o1`, the GI50 in the experiment with LOX IMVI is 54.1 µM (inactive); in the experiment with OVCAR-4 it was 43.5 µM (inactive); in the experiment on RXF 393, 20.8 µM (inactive); in the experiment with UACC-257, 82.2 µM (inactive); with HCT-116, 63.1 µM (inactive); in the experiment with A498 it was 24.8 µM (inactive). Moreover, the GI50 in the experiment on MDA-MB-231 is 43.8 µM (inactive); in the experiment with OVCAR-3, 53.2 µM (inactive); with IGROV-1, 45.5 µM (inactive); in the experiment on HOP-92, 53.7 µM (inactive); in the experiment on UO-31, 75.7 µM (inactive); in the experiment with SR, 25.4 µM (inactive). Besides, the GI50 in the experiment with M14 was 50.9 µM (inactive); in the experiment on SK-MEL-2, 37.7 µM (inactive); in the experiment on SF-539 it was 22.1 µM (inactive); in the experiment with Malme-3M it was 47.1 µM (inactive); in the experiment with U-251, 61 µM (inactive); in the experiment with T47D, > 100 µM (inactive).
With `O=[N+]([O-])c1nccn1CCCNc1c2ccccc2[n+]([O-])c2ccccc12`, the GI50 was > 100 µM (inactive) with LOX IMVI; 50.2 µM (inactive) with OVCAR-4; > 100 µM (inactive) in the experiment on RXF 393; > 100 µM (inactive) in the experiment on UACC-257; 51.3 µM (inactive) in the experiment on NCI-H460; > 100 µM (inactive) in the experiment with HCT-116. For the same compound, the GI50 in the experiment with A498 was > 100 µM (inactive); in the experiment with MDA-MB-231 it was > 100 µM (inactive); in the experiment with OVCAR-3 it was > 100 µM (inactive); in the experiment on IGROV-1 it was 51.9 µM (inactive); in the experiment on HOP-92, 27.5 µM (inactive); in the experiment with UO-31, > 100 µM (inactive). Also, the GI50 in the experiment with SR is > 100 µM (inactive); in the experiment with M14 it was > 100 µM (inactive); in the experiment on SK-MEL-2 it was 88.5 µM (inactive); in the experiment with SF-539, > 100 µM (inactive); in the experiment with Malme-3M, > 100 µM (inactive); in the experiment on U-251, > 100 µM (inactive). In addition, the GI50 in the experiment on T47D is > 100 µM (inactive).
